Measured values as given in US7935819B2, “Cyclic urea derivatives, preparation thereof and pharmaceutical use thereof as kinase inhibitors” (Aventis Pharma S.A., priority 2006, dated 2011).
Read-outs that look alike come from different tables or passages of the source.

Tests used:
[1] = biological target: MEF-IGF1R cells (stable clone transfected with hIGF-1R) (Homo sapiens, UniProt P08069); assay: Proliferation/viability of MEF-IGF1R (Test C), [14C]thymidine incorporation; format: cell-based; settings: rhIGF1 100 ng/mL, 72 hours, read-out: Test C IC50
Chain of MEF-IGF1R cells (stable clone transfected with hIGF-1R) (P08069 whole entry, change not shown): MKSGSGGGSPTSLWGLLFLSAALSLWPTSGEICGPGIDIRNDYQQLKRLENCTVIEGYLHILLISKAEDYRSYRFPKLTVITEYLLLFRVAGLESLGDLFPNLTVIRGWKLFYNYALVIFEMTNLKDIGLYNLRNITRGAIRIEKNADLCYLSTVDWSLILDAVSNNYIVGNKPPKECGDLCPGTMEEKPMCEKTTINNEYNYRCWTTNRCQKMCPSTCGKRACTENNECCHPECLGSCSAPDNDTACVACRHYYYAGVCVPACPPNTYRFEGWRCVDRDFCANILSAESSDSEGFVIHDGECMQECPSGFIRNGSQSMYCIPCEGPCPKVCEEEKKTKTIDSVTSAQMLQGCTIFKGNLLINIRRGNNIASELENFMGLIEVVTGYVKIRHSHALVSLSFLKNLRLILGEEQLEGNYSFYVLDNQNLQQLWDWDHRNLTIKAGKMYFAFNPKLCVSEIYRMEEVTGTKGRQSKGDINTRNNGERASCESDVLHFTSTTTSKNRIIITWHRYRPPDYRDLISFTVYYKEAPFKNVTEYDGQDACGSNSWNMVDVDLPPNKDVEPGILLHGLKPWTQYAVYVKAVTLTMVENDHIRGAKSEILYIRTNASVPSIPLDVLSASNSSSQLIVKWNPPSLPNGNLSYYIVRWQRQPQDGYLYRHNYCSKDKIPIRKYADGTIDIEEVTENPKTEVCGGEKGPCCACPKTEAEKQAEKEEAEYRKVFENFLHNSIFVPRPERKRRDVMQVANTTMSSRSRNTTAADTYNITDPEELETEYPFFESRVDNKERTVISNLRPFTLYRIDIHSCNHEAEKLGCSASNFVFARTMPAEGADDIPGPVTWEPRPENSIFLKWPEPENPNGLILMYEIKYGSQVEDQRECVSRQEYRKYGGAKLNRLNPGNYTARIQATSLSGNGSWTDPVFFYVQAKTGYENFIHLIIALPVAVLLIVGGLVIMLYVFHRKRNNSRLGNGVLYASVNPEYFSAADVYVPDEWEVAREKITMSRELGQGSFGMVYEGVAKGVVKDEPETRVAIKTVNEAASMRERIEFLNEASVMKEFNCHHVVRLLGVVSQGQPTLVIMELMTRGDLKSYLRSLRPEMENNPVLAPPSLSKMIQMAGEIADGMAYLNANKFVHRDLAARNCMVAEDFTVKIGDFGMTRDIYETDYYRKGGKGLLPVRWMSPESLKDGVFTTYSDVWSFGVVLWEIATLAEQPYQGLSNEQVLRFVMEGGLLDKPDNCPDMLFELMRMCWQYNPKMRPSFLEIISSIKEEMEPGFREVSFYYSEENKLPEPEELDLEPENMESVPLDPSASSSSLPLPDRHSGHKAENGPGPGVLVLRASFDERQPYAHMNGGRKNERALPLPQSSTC
Description: C) Measurement of the Proliferation/Viability of MEF-IGF1R
Cell culture: the MEF-IGF1R cells (stable clone of cells transfected with the receptor hIGF-1R) are cultured at 37° C. under 5% CO2 in EMEM medium containing 10% FCS.
Test procedure: the cells are seeded at 5000 cells per well in 96-well Cytostar plates (Amersham) with 0.2 mL of EMEM culture medium at 37° C. for 18 hours. The cells are then washed twice with EMEM medium and left to culture without serum for 24 hours. The compounds are then added at various concentrations in the presence of rhIGF1 (100 ng/mL) and 0.1 μCi of Thymidine [^14C] (specific activity ˜50 mCi/mmol) to give 0.2 mL of volume per well. After incubation for 72 hours in the presence of the compound, at 37° C. under 5% CO2, the incorporation of Thymidine [^14C] is measured by counting the radioactivity on a Microbeta trilux counter (Perkin-Elmer). The IC50 is determined from 10 increasing concentrations of the compound.
(§1) (i) The tests are performed in duplicate and the mean of the two tests is calculated.
(§2) (ii) The value of the signal of the maximum response is calculated from the positive control: cells stimulated with IGF1 without compound.
(§3) (iii) Value of the signal of the minimum response is calculated from the negative control: cells not stimulated with IGF1 without compound.
(§4) (iv) By using these values as maximum (100%) and minimum (0%), respectively, the data were normalized so as to give a percentage of the maximum response.
(§5) (v) A curve of dose response is plotted and the IC50 (the concentration of which the compound induces a 50% decrease in the signal) of the compound is calculated by non-linear regression analysis.

IGF1R in MCF-7 cells = biological target: T1, IGF1R in MCF-7 cells (Homo sapiens, UniProt P08069); assay: Autophosphorylation of IGF-1R in MCF7 cells after stimulation with IGF-1 (Test B), ELISA; format: cell-based; settings: compound added one hour before IGF1 stimulation (10 minutes)
T1 construct: endogenous in cells; host or cells: MCF-7 cells
T1 sequence (P08069 31-1367): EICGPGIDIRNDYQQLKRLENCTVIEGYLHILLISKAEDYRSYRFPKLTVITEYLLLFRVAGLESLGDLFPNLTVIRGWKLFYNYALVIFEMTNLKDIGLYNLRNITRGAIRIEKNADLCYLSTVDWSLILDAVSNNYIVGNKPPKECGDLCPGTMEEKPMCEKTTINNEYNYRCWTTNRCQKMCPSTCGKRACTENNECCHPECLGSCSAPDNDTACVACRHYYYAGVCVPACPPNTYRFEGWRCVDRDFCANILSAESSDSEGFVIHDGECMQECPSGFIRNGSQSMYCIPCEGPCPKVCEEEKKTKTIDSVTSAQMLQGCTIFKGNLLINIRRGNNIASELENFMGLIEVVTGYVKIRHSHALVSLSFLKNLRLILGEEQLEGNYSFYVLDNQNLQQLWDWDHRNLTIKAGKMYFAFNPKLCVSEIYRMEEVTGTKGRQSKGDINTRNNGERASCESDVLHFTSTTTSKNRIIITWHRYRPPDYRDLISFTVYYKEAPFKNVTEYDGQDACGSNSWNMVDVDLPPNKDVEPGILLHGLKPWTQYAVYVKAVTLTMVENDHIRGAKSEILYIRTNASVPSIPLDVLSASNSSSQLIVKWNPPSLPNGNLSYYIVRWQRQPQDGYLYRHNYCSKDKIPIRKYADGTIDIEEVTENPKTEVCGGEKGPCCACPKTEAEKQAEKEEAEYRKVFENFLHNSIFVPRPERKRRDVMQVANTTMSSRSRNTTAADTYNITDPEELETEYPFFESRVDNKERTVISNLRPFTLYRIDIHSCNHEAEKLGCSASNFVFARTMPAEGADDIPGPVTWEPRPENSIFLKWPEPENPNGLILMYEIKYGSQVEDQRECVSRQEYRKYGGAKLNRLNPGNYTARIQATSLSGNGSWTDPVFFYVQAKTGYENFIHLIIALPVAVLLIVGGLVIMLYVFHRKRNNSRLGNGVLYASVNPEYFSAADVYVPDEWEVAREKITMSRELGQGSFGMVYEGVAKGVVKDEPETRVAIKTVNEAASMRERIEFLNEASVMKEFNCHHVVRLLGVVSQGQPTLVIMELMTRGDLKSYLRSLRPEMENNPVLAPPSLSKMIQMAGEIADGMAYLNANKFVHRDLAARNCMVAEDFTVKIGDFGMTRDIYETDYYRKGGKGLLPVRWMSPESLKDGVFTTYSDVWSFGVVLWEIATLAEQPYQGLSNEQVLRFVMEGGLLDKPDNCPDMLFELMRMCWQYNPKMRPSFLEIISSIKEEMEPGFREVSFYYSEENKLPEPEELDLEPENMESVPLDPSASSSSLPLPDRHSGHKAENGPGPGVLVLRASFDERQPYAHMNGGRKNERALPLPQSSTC
Description: B) Measurement of the Autophosphorylation of IGF-1r in MCF7 Cells after Stimulation with IGF-1
Cell Culturing and Execution of the Test:
The autophosphorylation of IGF1R in the IGF1-induced cells is evaluated by means of an ELISA technique (Enzyme Linked ImmunoSorbent Assay). The MCF-7 are seeded at 60 000 cells per well in 6-well plates and incubated at 37° C., 5% CO2 in medium containing 10% serum. After one night in 10% serum, the cells are deprived of serum for 24 hours. The compounds are added to the medium one hour before stimulation with IGF1. After 10 minutes of stimulation with IGF1, the cells are lysed with a buffer (Hepes 50 mM pH 7.6, Triton X100 1%, orthovanadate 2 mM, protease inhibitor cocktail). The cell lysates are incubated on a 96-well plate precoated with an anti-IGF1R antibody, followed by incubation with an anti-phosphotyrosine antibody coupled to the enzyme peroxidase. The level of peroxidase activity (measured by OD with a luminescent substrate) reflects the phosphorylation status of the receptor.
as §1, §2, §3, §4, §5

[2] = biological target: T2, IGF-1R (human cytoplasmic domain fused with GST) (Homo sapiens, UniProt P08069); assay: Kinase IGF-1R test (Test A): inhibition of autophosphorylation of the enzyme, HTRF; format: biochemical; settings: 120 μM ATP
T2 construct: The human cytoplasmic domain of IGF-1R was cloned by fusion with glutathione S-transferase (GST); made in house; host or cells: SF21 insect cells (baculovirus, pFastBac-GST)
T2 sequence (P08069 960-1367 limits assumed): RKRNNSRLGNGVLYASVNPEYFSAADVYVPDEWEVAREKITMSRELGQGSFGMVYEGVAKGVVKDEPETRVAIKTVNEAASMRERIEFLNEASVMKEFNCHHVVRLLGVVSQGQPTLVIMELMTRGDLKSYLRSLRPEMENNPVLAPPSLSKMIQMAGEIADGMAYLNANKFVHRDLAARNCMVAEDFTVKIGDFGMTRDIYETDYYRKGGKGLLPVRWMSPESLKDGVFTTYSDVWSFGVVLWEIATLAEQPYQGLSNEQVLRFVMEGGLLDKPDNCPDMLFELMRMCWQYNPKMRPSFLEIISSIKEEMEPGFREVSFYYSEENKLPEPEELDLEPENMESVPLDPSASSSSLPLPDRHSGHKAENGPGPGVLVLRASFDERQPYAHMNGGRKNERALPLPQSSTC
Description: A) Experimental Protocol for the Kinase IGF-1R Test:
The inhibitory activity of the compounds on IGF1R is determined by measuring the inhibition of autophosphorylation of the enzyme using a time-resolved fluorescence test (HTRF). The human cytoplasmic domain of IGF-1R was cloned by fusion with glutathione S-transferase (GST) in the baculovirus expression vector pFastBac-GST. The protein is expressed in the SF21 cells and purified to about 80% homogeneity. For the enzymatic test, the test compound at 10 mM dissolved in DMSO is diluted in 1/3 steps in a 50 mM Hepes, pH 7.5, 5 mM MnCl2, 50 mM NaCl, 3% Glycerol, 0.025% Tween 20 buffer. To measure the inhibition, the successive dilutions of the compound are preincubated for 30 minutes and 90 minutes in the presence of 5 nM of enzyme, the final DMSO concentration not exceeding 1%. The enzymatic reaction is initiated to have a final ATP concentration of 120 μM, and is stopped after 5 minutes by addition of 100 mM Hepes, pH 7.0 buffer containing 0.4 M of potassium fluoride, 133 mM EDTA, 0.1% BSA, the XL665-labelled antibody anti-GST and the anti-phosphotyrosine antibody conjugated to europium cryptate Eu—K (Cis-Bio Int.). The characteristics of the two fluorophores, XL-665 and Eu—K, are available in G. Mathis et al., Anticancer Research, 1997, 17, pages 3011-3014. The energy transfer between the excited europium cryptate to the acceptor XL665 is proportional to the degree of autophosphorylation of IGF-1R. The specific long-lasting signal of XL-665 is measured in a GENios Pro TECAN plate counter. The inhibition of autophosphorylation of IGF-1R at time 30 minutes and 90 minutes with the test compounds of the invention is calculated relative to a 1% in DMSO control, whose activity is measured in the absence of compound. The curve representing the percentage of inhibition as a function of the log of the concentration is established to determine the concentration corresponding to 50% inhibition (IC50).

[3] = preincubation with enzyme 30 minutes, read-out: Test A 30′ IC50
[4] = preincubation with enzyme 90 minutes, read-out: Test A 90′ IC50

IC50 (IGF1R in MCF-7 cells) | IC50 [2, 3] | IC50 [2, 4] | SMILES | GI50 [1]
0.01 to 0.1 µM | > 0.1 µM | 0.01 to 0.1 µM | CC(C)(CO)c1ccc(N2C(=O)N(Cc3ccnc(Nc4cccnc4)c3)C(C)(C)C2=O)cc1 [Example 31N, 3-[4-(2-hydroxy-1,1-dimethylethyl)phenyl]-5,5-dimethyl-1-{[2-(pyridin-3-ylamino)pyridin-4-yl]methyl}-imidazolidine-2,4-dione] | > 0.1 µM
 | 0.01 to 0.1 µM | 0.01 to 0.1 µM | CC(C)(C)c1ccc(N2C(=O)N(Cc3ccnc(Nc4cncc(F)c4)c3)C(C)(C)C2=O)cc1 [Example 31A, 3-(4-tert-butylphenyl)-1-({2-[(5-fluoropyridin-3-yl)amino]pyridin-4-yl}methyl)-5,5-dimethylimidazolidine-2,4-dione] | > 0.1 µM
 | 0.01 to 0.1 µM | < 0.01 µM | CC(C)(C)c1ccc(N2C(=O)N(Cc3ccnc(NC(=O)NCCCCN4CCCC4)c3)C(C)(C)C2=O)cc1 [Example 12, 1-(4-{[3-(4-tert-butylphenyl)-5,5-dimethyl-2,4-dioxoimidazolidin-1-yl]methyl}pyridin-2-yl)-3-(4-pyrrolidin-1-ylbutyl)urea] | > 0.1 µM
 | 0.01 to 0.1 µM | 0.01 to 0.1 µM | CC(C)(C)c1ccc(N2C(=O)N(Cc3ccnc(Nc4cncnc4)c3)C(C)(C)C2=O)cc1 [Example 7, 3-(4-tert-butylphenyl)-5,5-dimethyl-1-{[2-(pyrimidin-5-ylamino)pyridin-4-yl]methyl}imidazolidine-2,4-dione] | > 0.1 µM
 | 0.01 to 0.1 µM | 0.01 to 0.1 µM | CCCCN(C)C(=O)Nc1cc(CN2C(=O)N(c3ccc(C(C)(C)C)cc3)C(=O)C2(C)C)ccn1 [Example 27, 1-butyl-3-(4-{[3-(4-tert-butylphenyl)-5,5-dimethyl-2,4-dioxoimidazolidin-1-yl]methyl}pyridin-2-yl)-1-methylurea] | > 0.1 µM
 | > 0.1 µM | 0.01 to 0.1 µM | CC(C)(C)c1ccc(N2C(=O)N(Cc3ccnc(NC(=O)NC4CCCCC4)c3)C(C)(C)C2=O)cc1 [Example 16, 1-(4-{[3-(4-tert-butylphenyl)-5,5-dimethyl-2,4-dioxoimidazolidin-1-yl]methyl}pyridin-2-yl)-3-cyclohexylurea] | > 0.1 µM
 | 0.01 to 0.1 µM | 0.01 to 0.1 µM | CC(C)(C)c1ccc(N2C(=O)N(Cc3ccnc(NC(=O)NCCCN4CCCC4)c3)C(C)(C)C2=O)cc1 [Example 9, 1-(4-{[3-(4-tert-butylphenyl)-5,5-dimethyl-2,4-dioxoimidazolidin-1-yl]methyl}pyridin-2-yl)-3-(3-pyrrolidin-1-ylpropyl)urea] | > 0.1 µM
 | 0.01 to 0.1 µM | 0.01 to 0.1 µM | CC(C)(C)c1ccc(N2C(=O)N(Cc3ccnc(NC(=O)NC4CCCC4)c3)C(C)(C)C2=O)cc1 [Example 10, 1-(4-{[3-(4-tert-butylphenyl)-5,5-dimethyl-2,4-dioxoimidazolidin-1-yl]methyl}pyridin-2-yl)-3-cyclopentylurea] | > 0.1 µM
 | 0.01 to 0.1 µM | < 0.01 µM | CC(C)(C)c1ccc(N2C(=O)N(Cc3ccnc(NC(=O)N4CCOCC4)c3)C(C)(C)C2=O)cc1 [Example 20, N-(4-{[3-(4-tert-butylphenyl)-5,5-dimethyl-2,4-dioxoimidazolidin-1-yl]methyl}pyridin-2-yl)morpholine-4-carboxamide] | > 0.1 µM
 | 0.01 to 0.1 µM | 0.01 to 0.1 µM | CC(C)(C)c1ccc(N2C(=O)N(Cc3ccnc(NC(=O)NCCN4CCCC4)c3)C(C)(C)C2=O)cc1 [Example 11, 1-(4-{[3-(4-tert-butylphenyl)-5,5-dimethyl-2,4-dioxoimidazolidin-1-yl]methyl}pyridin-2-yl)-3-(2-pyrrolidin-1-ylethyl)urea] | > 0.1 µM

More lines, now with the values behind:

SMILES | IC50 (IGF1R in MCF-7 cells) | IC50 [2, 3] | IC50 [2, 4] | GI50 [1]
CN(C)C(=O)Nc1cc(CN2C(=O)N(c3ccc4c(c3)N(C(=O)CNC3CCCC3)CC4(C)C)C(=O)C2(C)C)ccn1 [Example 3, 3-[4-({3-[1-(N-cyclopentylglycyl)-3,3-dimethyl-2,3-dihydro-1H-indol-6-yl]-5,5-dimethyl-2,4-dioxoimidazolidin-1-yl}methyl)pyridin-2-yl]-1,1-dimethylurea] |  | > 0.1 µM | 0.01 to 0.1 µM | 0.01 to 0.1 µM
CC1(C)CN(C(=O)CNC2CCCC2)c2cc(N3C(=O)N(Cc4ccnc(Nc5cccnc5)c4)C(C)(C)C3=O)ccc21 [Example 4, 3-[1-(N-cyclopentylglycyl)-3,3-dimethyl-2,3-dihydro-1H-indol-6-yl]-5,5-dimethyl-1-{[2-(pyridin-3-ylamino)pyridin-4-yl]methyl}imidazolidine-2,4-dione] |  | 0.01 to 0.1 µM | 0.01 to 0.1 µM | < 0.01 µM
CN(C)C(=O)Nc1nccc(CN2C(=O)N(c3ccc(C(C)(C)C)cc3)C(=O)C2(C)C)n1 [Example 2, 3-(4-{[3-(4-tert-butylphenyl)-5,5-dimethyl-2,4-dioxoimidazolidin-1-yl]methyl}pyrimidin-2-yl)-1,1-dimethylurea] |  | > 0.1 µM | > 0.1 µM | > 0.1 µM
CC1(C)C(=O)N(c2ccc(OC(F)(F)F)c(NC(=O)[C@H](N)c3ccccc3)c2)C(=O)N1Cc1ccnc(Nc2cccnc2)c1 [Example 5a, (2R)-2-amino-N-[5-(4,4-dimethyl-2,5-dioxo-3-{[2-(pyridin-3-ylamino)pyridin-4-yl]methyl}imidazolidin-1-yl)-2-(trifluoromethoxy)phenyl]-2-phenylacetamide] |  | 0.01 to 0.1 µM | 0.01 to 0.1 µM | < 0.01 µM
CN(C)C(=O)Nc1cc(CN2C(=O)N(c3ccc(OC(F)(F)F)c(NC(=O)[C@H](N)c4ccccc4)c3)C(=O)C2(C)C)ccn1 [Example 6a, (2R)-2-amino-N-{5-[3-({2-[(dimethylcarbamoyl)amino]pyridin-4-yl}methyl)-4,4-dimethyl-2,5-dioxoimidazolidin-1-yl]-2-(trifluoromethoxy)phenyl}-2-phenylacetamide] |  | > 0.1 µM | 0.01 to 0.1 µM | < 0.01 µM
CC(C)(C)c1ccc(N2C(=O)N(Cc3ccnc(N)n3)C(C)(C)C2=O)cc1 [Example 1 Stage f), 1-[(2-aminopyrimidin-4-yl)methyl]-3-(4-tert-butylphenyl)-5,5-dimethylimidazolidine-2,4-dione] |  | 0.01 to 0.1 µM | 0.01 to 0.1 µM | > 0.1 µM
